Test results: US5948791A, “Quinoline derivatives for treating malaria” (Hoffmann-La Roche Inc., priority 1995, dated 1999)
Values after ≈ are worked out from the molar mass of the structure shown. Counter-ions that a name gives are not always drawn. Like-named read-outs stand apart in the source and are kept apart here.

Assays:
[1] = system: Plasmodium berghei; experiment: animal or person; assay type: in vivo, Plasmodium berghei (strain ANKA) in mice; conditions: Plasmodium berghei, mice, blood smears 48 h after treatment
Experimental: Test method for the determination of the activity against Plasmodium berghei in vivo
The preparations are tested on mice infected with malaria pathogens (Plasmodium berghei). Male albino mice (IBM:MORO(SPF), FUELLINSDORF) weighing about 25 g are used as the test animals. They are kept in climatized rooms at 21-22° C. in groups of 5 animals per cage. They receive ad libitum a diet feed with a low PABA content (NAFAG FUTTER " No. 9009 PAB-45, PABA content 45 mg/kg) and drinking water. On the first day of the test (D0) the test animals are infected with Plasmodium berghei (strain ANKA). For this there is used heparinized blood of a donor mouse with about 30% parasitemia, which is diluted with physiological saline such that it contains 10^8 parasitized erythrocytes per ml. 0.2 ml of this suspension is injected intravenously (i.v.) into the mice to be treated and into the control mice.
The substances to be tested are dissolved or suspended in distilled water or in a mixture of 7% Tween 80, 3% alcohol (96%) and water. Usually, 0.25 ml of this solution or suspension is administered once subcutaneously and perorally to groups of 5 test animals. Treatment is effected 24 hours after the infection. 10 control animals are treated in the same manner with solvent or suspension medium per test.
All substances are tested in a first test in a single dosage of 10 mg/kg. Only those substances which in this test (10 mg/kg) have shown a parasitaemia reduction of 90% are used for the titration. Suitable dilutions of the test substance can be used to obtain an accurate titration of the activity.
48 hours after the treatment (D+3) blood smears are prepared from all animals using blood from tail veins and are stained with giemsa. […] The difference in the average values of the infection rates of control group (100%) and treated groups is calculated and expressed as a percentage reduction (GI%). The ED50 or ED90 is determined mathematically by means of the JMP programme (nonlinear fit). The ED50 (ED90) in mg/kg is that dose which after single administration reduces the average erythrocyte infection rate by 50% (90%) in comparison to the control group.

[2] = system: Plasmodium falciparum strain NF54; experiment: Growth inhibition of Plasmodium falciparum NF54 (chloroquine-sensitive) in vitro, [G-3H]-hypoxanthin incorporation; assay type: cell-based; conditions: chloroquine-sensitive strain NF54, 72 h, read-out: IC50 for P. falciparum NF54
Description: (§1) The ratio of the growth inhibition of a strain which is especially resistant to chloroquine and of a strain which is sensitive to chloroquine gives as the "resistance index" a measurement for the absence of a cross-resistance with chloroquine. Since, for all novel compounds the resistance index lies between 0.7 and 2.5, they inhibit the growth of sensitive as well as resistant strains of the malaria pathogen equally effectively. They are accordingly also suitable for the prophylaxis of a malaria disease and also for the treatment of a malaria disease even when chloroquine is ineffective. The good activity against malaria pathogens is also shown in animal experiments. The effective doses measured after oral and subcutaneous administration to mice infected with malaria pathogens are shown in Table 2 hereinafter.
(§2) Test method for the determination of the activity against Plasmodium falciparum in vitro
(§3) The preparations are tested on intraerythrocytary stages of Plasmodium falciparum from asynchronous cultures according to the method of Desjardin et al. (Desjardins, R. E. et al: Quantitative assessment of antimalarial activity in vitro by a semiautomated microdilution technique. Antimicrob. Agents Chemother. 16, 710-718, (1979)).
(§4) The culture medium consists of RPMI 1640 with the addition of 25 mM HEPES, 25 mM NaHCO3, 100 μg/ml neomycin and […] (A^+). Human-A^+ erythrocytes are used as the Plasmodium falciparum host cells. The parasites are maintained at 37° C. in an atmosphere of 3% O2, 4% CO2, 93% N2 and 95% relative humidity.
(§5) In order to determine the activity, the preparations are dissolved in DMSO, pre-diluted in the culture medium to a suitable starting concentration and subsequently titrated-out on to microtitre plates in the 2nd stage over 6-7 steps. After the addition of the parasite culture (0.7% parasitemia in 2.5% erythrocyte suspension) the test plates are incubated under the conditions given above for 72 h. The parasite growth in the different preparation concentrations is determined using [G-^3 H]-hypoxanthin incorporation compared to untreated control cultures on the same test plates. The 50% growth inhibition (IC50) is calculated according to logit regression analysis from the resulting dosage-activity curve.
(§6) The preparations are tested on at least one chloroquine-resistant and one chloroquine-sensitive Plasmodium falciparum strain. Additional sensitive and resistant strains are included for further characterization.

[3] = system: Plasmodium falciparum K1; experiment: Growth inhibition of Plasmodium falciparum K1 (chloroquine-resistant) in vitro, [G-3H]-hypoxanthin incorporation; assay type: cell-based, Plasmodium falciparum (strain K1); conditions: for IC50: Plasmodium falciparum, K1, 72 h, read-out: IC50 for P. falciparum K1; for Resistance index: ratio of the IC50 for K1 and the IC50 for NF54
Description: as §1, §2, §3, §4, §5, §6

[4] = po, single peroral dose of 10 mg/kg, read-out: Growth inhibition in % after po administration (GI%, percentage reduction of the parasitemia)
[5] = sc, single subcutaneous dose of 10 mg/kg, read-out: Growth inhibition in % after sc administration (GI%, percentage reduction of the parasitemia)

| Compound | inhibition in vivo at 10 mg/kg [1, 4] | inhibition in vivo at 10 mg/kg [1, 5] | IC50 [2] | IC50 [3] | Resistance index [3] |
| --- | --- | --- | --- | --- | --- |
| Cl.Cl.Clc1ccc(CN[C@@H]2CC[C@H](Nc3ccnc4cc(Cl)ccc34)C2)cc1 (relative stereo) [Example 68, cis-N1-(7-Chloro-quinolin-4-yl)-N3-(4-chloro-benzyl)-cyclopentane-1,3-diamine dihydrochloride] | 99.9% | 99.6% | 0.0059 µg/mL | 0.0146 µg/mL | 2.5 |
| CCN(CC)Cc1cc(Nc2ccnc3cc(Cl)ccc23)ccc1O [Amodiaquine, reference compound] |  |  | 0.0025 µg/mL (≈ 7.03 nM) | 0.0035 µg/mL (≈ 9.84 nM) |  |
| C[C@H](CNc1ccnc2cc(Cl)ccc12)NCc1ccc(N(C)C)cc1.Cl.Cl.Cl [Example 1, (2R)-N1-(7-Chloro-quinolin-4-yl)-N2-(4-dimethylamino-benzyl)-propane-1,2-diamine trihydrochloride] |  |  | 0.0126 µg/mL | 0.0175 µg/mL | 1.4 |
| C[C@@H](CNCc1ccc(N(C)C)cc1)Nc1ccnc2cc(Cl)ccc12.Cl.Cl.Cl [Example 2, (2S)-N2-(7-Chloro-quinolin-4-yl)-N1-(4-dimethylamino-benzyl)-propane-1,2-diamine trihydrochloride] |  |  | 0.0071 µg/mL | 0.0148 µg/mL | 2.1 |
| CC(C)(CNc1ccnc2cc(Cl)ccc12)NCc1cccc(Cl)c1Cl.Cl.Cl [Example 26, N1-(7-Chloro-quinolin-4-yl)-N2-(2,3-dichloro-benzyl)-2-methyl-propane-1,2-diamine dihydrochloride] |  |  | 0.0263 µg/mL | 0.0373 µg/mL | 1.4 |
| CC(C)(CNc1ccnc2cc(Cl)ccc12)NCc1cccc(O)c1.Cl.Cl [Example 32, N1-(7-Chloro-quinolin-4-yl)-N2-(3-hydroxy-benzyl)-2-methyl-propane-1,2-diamine dihydrochloride] |  |  | 0.0076 µg/mL | 0.0147 µg/mL | 1.9 |
| COc1ccccc1CNC(C)(C)CNc1ccnc2cc(Cl)ccc12.Cl.Cl [Example 34, N1-(7-Chloro-quinolin-4-yl)-N2-(2-methoxy-benzyl)-2-methyl-propane-1,2-diamine dihydrochloride] |  |  | 0.0072 µg/mL | 0.015 µg/mL | 2.1 |
| COc1ccc(CNC(C)(C)CNc2ccnc3cc(Cl)ccc23)cc1.Cl.Cl [Example 35, N1-(7-Chloro-quinolin-4-yl)-N2-(4-methoxy-benzyl)-2-methyl-propane-1,2-diamine dihydrochloride] |  |  | 0.0064 µg/mL | 0.0133 µg/mL | 2.1 |
| COc1cccc(CNC(C)(C)CNc2ccnc3cc(Cl)ccc23)c1OC.Cl.Cl [Example 36, N1-(7-Chloro-quinolin-4-yl)-N2-(2,3-dimethoxy-benzyl)-2-methyl-propane-1,2-diamine dihydrochloride] |  |  | 0.0162 µg/mL | 0.0207 µg/mL | 1.3 |
| COc1ccc(CNC(C)(C)CNc2ccnc3cc(Cl)ccc23)c(OC)c1.Cl.Cl [Example 37, N1-(7-Chloro-quinolin-4-yl)-N2-(2,4-dimethoxy-benzyl)-2-methyl-propane-1,2-diamine dihydrochloride] |  |  | 0.011 µg/mL | 0.011 µg/mL | 1.0 |
| COc1ccc(OC)c(CNC(C)(C)CNc2ccnc3cc(Cl)ccc23)c1.Cl.Cl [Example 38, N1-(7-Chloro-quinolin-4-yl)-N2-(2,5-dimethoxy-benzyl)-2-methyl-propane-1,2-diamine dihydrochloride] |  |  | 0.0101 µg/mL | 0.0151 µg/mL | 1.5 |
| COc1ccc(CNC(C)(C)CNc2ccnc3cc(Cl)ccc23)cc1OC.Cl.Cl [Example 39, N1-(7-Chloro-quinolin-4-yl)-N2-(3,4-dimethoxy-benzyl)-2-methyl-propane-1,2-diamine dihydrochloride] |  |  | 0.0078 µg/mL | 0.0103 µg/mL | 1.3 |
| COc1cc(CNC(C)(C)CNc2ccnc3cc(Cl)ccc23)cc(OC)c1OC.Cl.Cl [Example 41, N1-(7-Chloro-quinolin-4-yl)-N2-(3,4,5-trimethoxy-benzyl)-2-methyl-propane-1,2-diamine dihydrochloride] |  |  | 0.0135 µg/mL | 0.0187 µg/mL | 1.4 |
| CC(C)(CNc1ccnc2cc(Cl)ccc12)NCc1ccc2c(c1)OCO2.Cl.Cl [Example 42, N1-(7-Chloro-quinolin-4-yl)-N2-benzo[1,3]dioxol-5-ylmethyl-2-methyl-propane-1,2-diamine dihydrochloride] |  |  | 0.0087 µg/mL | 0.0126 µg/mL | 1.4 |
| CC(C)(CNc1ccnc2cc(Cl)ccc12)NCc1cccc2ccccc12.Cl.Cl [Example 52, N1-(7-Chloro-quinolin-4-yl)-N2-(naphthalen-1-yl-methyl)-2-methyl-propane-1,2-diamine dihydrochloride] |  |  | 0.0346 µg/mL | 0.0556 µg/mL | 1.6 |
| CC(C)(CNc1ccnc2cc(Cl)ccc12)NCc1ccc2ccccc2c1.Cl.Cl [Example 53, N1-(7-Chloro-quinolin-4-yl)-N2-(naphthalen-2-yl-methyl)-2-methyl-propane-1,2-diamine dihydrochloride] |  |  | 0.0159 µg/mL | 0.0149 µg/mL | 0.9 |
| CC(C)(CNc1ccnc2cc(Cl)ccc12)NCc1ccco1.Cl.Cl [Example 54, N1-(7-Chloro-quinolin-4-yl)-N2-(furan-2-yl-methyl)-2-methyl-propane-1,2-diamine dihydrochloride] |  |  | 0.0193 µg/mL | 0.029 µg/mL | 1.5 |
| CC(C)(CNc1ccnc2cc(Cl)ccc12)NCc1ccoc1.Cl.Cl [Example 55, N1-(7-Chloro-quinolin-4-yl)-N2-(furan-3-yl-methyl)-2-methyl-propane-1,2-diamine dihydrochloride] |  |  | 0.0078 µg/mL | 0.0145 µg/mL | 1.9 |
| CC(C)(CNc1ccnc2cc(Cl)ccc12)NCc1ccc(C(F)(F)F)cc1C(F)(F)F.Cl.Cl [Example 59, N1-(7-Chloro-quinolin-4-yl)-N2-(2,4-bis-trifluoromethyl-benzyl)-2-methyl-propane-1,2-diamine dihydrochloride] |  |  | 0.166 µg/mL | 0.186 µg/mL | 1.1 |
| COc1cc(CN[C@H]2CCCC[C@@H]2Nc2ccnc3cc(Cl)ccc23)cc(OC)c1OC.Cl.Cl [Example 65, (1S,2S)-N1-(7-Chloro-quinolin-4-yl)-N2-(3,4,5-trimethoxy-benzyl)-cyclohexane-1,2-diamine dihydrochloride] |  |  | 0.0099 µg/mL | 0.0253 µg/mL | 2.6 |
| Oc1ccccc1CN[C@H]1CC[C@@H](Nc2ccnc3cc(Cl)ccc23)CC1 [Example 78, cis-N1-(7-Chloro-quinolin-4-yl)-N4-(2-hydroxy-benzyl)-cyclohexane-1,4-diamine dihydrochloride] | 99.9% | 100% |  |  |  |
